Values after ≈ are worked out from the molar mass of the structure shown.
Experiments:
[1] = target: T1, 1-deoxy-D-xylulose 5-phosphate reductoisomerase (Mycobacterium tuberculosis, UniProt P9WNS1); experiment: Inhibition of recombinant Mycobacterium tuberculosis DXR extracted from Escherichia coli M15 using DXP as substrate by NADPH consumption based photometric assay
T1 sequence (P9WNS1 whole entry): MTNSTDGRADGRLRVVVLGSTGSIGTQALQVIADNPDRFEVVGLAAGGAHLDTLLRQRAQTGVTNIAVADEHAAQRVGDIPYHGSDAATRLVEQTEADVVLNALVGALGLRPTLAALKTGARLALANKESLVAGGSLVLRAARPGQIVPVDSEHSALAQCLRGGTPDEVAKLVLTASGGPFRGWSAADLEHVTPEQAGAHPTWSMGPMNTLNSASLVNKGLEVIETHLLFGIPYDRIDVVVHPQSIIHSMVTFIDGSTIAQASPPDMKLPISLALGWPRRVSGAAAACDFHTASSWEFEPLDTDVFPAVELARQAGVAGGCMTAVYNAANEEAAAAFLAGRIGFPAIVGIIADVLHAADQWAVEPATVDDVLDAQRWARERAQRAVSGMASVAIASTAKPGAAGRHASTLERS

[2] = target: T2, 1-deoxy-D-xylulose 5-phosphate reductoisomerase (Escherichia coli K-12, UniProt P45568); experiment: Inhibition of recombinant Escherichia coli DXR extracted from Escherichia coli M15 using DXP as substrate by NADPH consumption based photometric assay
T2 sequence (P45568 whole entry): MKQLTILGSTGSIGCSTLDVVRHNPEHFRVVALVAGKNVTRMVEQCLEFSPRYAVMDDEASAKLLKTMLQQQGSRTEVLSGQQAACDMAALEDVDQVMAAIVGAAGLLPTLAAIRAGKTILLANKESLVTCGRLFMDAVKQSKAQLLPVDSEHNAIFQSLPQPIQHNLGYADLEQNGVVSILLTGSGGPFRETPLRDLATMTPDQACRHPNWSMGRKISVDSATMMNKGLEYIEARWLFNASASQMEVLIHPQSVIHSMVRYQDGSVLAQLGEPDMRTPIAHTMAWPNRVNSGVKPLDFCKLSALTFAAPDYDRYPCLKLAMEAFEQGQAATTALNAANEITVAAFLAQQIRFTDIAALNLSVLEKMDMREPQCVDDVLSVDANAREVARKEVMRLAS

[3] = target: T3, 1-deoxy-D-xylulose 5-phosphate reductoisomerase, apicoplastic (Plasmodium falciparum (isolate 3D7), UniProt Q8IKG4); experiment: Inhibition of Plasmodium falciparum DXR extracted from Escherichia coli using DXP as substrate by NADPH consumption based photometric assay
T3 sequence (Q8IKG4 whole entry): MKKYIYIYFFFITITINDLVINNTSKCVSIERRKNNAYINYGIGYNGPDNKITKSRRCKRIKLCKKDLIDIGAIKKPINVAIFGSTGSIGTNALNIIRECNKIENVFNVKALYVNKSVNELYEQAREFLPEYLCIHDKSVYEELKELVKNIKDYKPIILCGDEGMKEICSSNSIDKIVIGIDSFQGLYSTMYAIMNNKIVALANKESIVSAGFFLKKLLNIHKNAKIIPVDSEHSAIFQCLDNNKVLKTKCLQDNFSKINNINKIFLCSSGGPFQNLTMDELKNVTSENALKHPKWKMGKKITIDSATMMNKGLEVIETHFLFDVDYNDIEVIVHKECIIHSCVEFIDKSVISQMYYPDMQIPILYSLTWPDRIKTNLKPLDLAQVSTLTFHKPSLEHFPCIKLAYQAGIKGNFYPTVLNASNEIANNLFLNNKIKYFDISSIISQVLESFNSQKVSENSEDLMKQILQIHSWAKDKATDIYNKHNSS

[4] = test system: Mycobacterium tuberculosis; experiment: Antibacterial activity against wild-type Mycobacterium tuberculosis H37Rv incubated for 5 days by CLSI based broth microdilution assay; format: functional; conditions: 120 h, time 5 day
Escherichia coli [5] = experiment: Antibacterial activity against Escherichia coli ATCC 25922 […] by CLSI based broth microdilution assay; format: functional
Plasmodium falciparum [6] = experiment: Antiparasitic activity against CQ-sensitive Plasmodium falciparum 3D7 at asexual stage infected in O Rh+ erythrocytes by ELISA; format: functional, organism-based; conditions: 3D7, Erythrocyte
[7] = Selectivity ratio of IC50 for antiparasitic activity against CQ-sensitive Plasmodium falciparum 3D7 at asexual stage infected in O Rh+ erythrocytes to IC50 for inhibition of Plasmodium falciparum DXR extracted from Escherichia coli
Plasmodium falciparum [8] = experiment: Antiparasitic activity against multidrug-resistant Plasmodium falciparum Dd2 at asexual stage infected in O Rh+ erythrocytes by ELISA method; format: functional, organism-based; conditions: Dd2, Erythrocyte
[9] = Selectivity ratio of IC50 for antiparasitic activity against multidrug-resistant Plasmodium falciparum Dd2 at asexual stage infected in O Rh+ erythrocytes to IC50 for inhibition of Plasmodium falciparum DXR extracted from Escherichia coli
Escherichia coli [10] = experiment: Antibacterial activity against Escherichia coli incubated for 20 hrs; format: functional

`CN(O)C(=O)CSC(c1cccc(OCCCCCCN2C(=O)c3ccccc3C2=O)c1)P(=O)(O)O` (racemic) gave an IC50 [1] of 1700 nM, an IC50 [2] of 68 nM and an IC50 [3] of 97 nM. It also gave an MIC [4] of over 100 µM, an MIC (Escherichia coli [5]) of over 100 µM and an IC50 (Plasmodium falciparum [6]) of over 12000 nM. The “Ratio IC50” value [7] was over 120, the IC50 (Plasmodium falciparum [8]) was 9800 nM and the “Ratio IC50” value [9] was 100.

In the case of `CN(O)C(=O)CSC(c1ccc(OCCCCCCN2C(=O)c3ccccc3C2=O)cc1)P(=O)(O)O` (racemic), the IC50 [1] is reported as 160 nM, the IC50 [2] is reported as 13 nM and the IC50 [3] is reported as 21 nM. It also gave an MIC [4] of over 100 µM, an MIC (Escherichia coli [5]) of over 100 µM and an IC50 (Plasmodium falciparum [6]) of 2600 nM. The “Ratio IC50” value [7] was 120, the IC50 (Plasmodium falciparum [8]) was 1900 nM and the “Ratio IC50” value [9] was 90.

`CCCCCCOc1ccc(C(SCC(=O)N(C)O)P(=O)(O)O)cc1` (racemic) gave an IC50 [1] of 92 nM, an IC50 [2] of 17 nM and an IC50 [3] of 48 nM. It also gave an MIC [4] of over 100 µM, an MIC (Escherichia coli [5]) of over 100 µM and an IC50 (Plasmodium falciparum [6]) of 8000 nM. The “Ratio IC50” value [7] was 170, the IC50 (Plasmodium falciparum [8]) was 5800 nM and the “Ratio IC50” value [9] was 120.

With `O=CN(O)CCCP(=O)(O)O` [FOSMIDOMYCIN] the MIC (Escherichia coli [10]) was 6.25 µM (≈ 1.14 µg/mL).

— ChEMBL document CHEMBL6121034, “Expanding the Chemical Space of Reverse Fosmidomycin Analogs” (ACS Med Chem Lett, 2025)
